Test results from US8524909B2, “Tetrahydro-pyran derivatives” (Hoffmann-La Roche Inc., priority 2010, dated 2013).

molecular target: mGlyT-1b (Mus musculus (Mouse), UniProt P28571); experiment: Glycine Uptake Inhibition Assay (mGlyT-1b); format: cell-based; details: [3H]-glycine uptake in Flp-in-CHO cells stably transfected with mGlyT1b cDNA; 20 min preincubation at 22° C.
Experimental: DMEM complete medium: Nutrient mixture F-12 (Gibco Life-technologies), fetal bovine serum (FBS) 5%, (Gibco life technologies), Penicillin/Streptomycin 1% (Gibco life technologies), Hygromycin 0.6 mg/ml (Gibco life technologies), Glutamine 1 mM Gibco life technologies)
Uptake buffer (UB): 150 mM NaCl, 10 mM Hepes-Tris, pH 7.4, 1 mM CaCl2, 2.5 mM KCl, 2.5 mM MgSO4, 10 mM (+) D-glucose.
Flp-in™-CHO (Invitrogen Cat no R758-07) cells stably transfected with mGlyT1b cDNA.
Glycine Uptake Inhibition Assay (mGlyT-1b)
On day 1 mammalian cells, (Flp-in™-CHO), transfected with mGlyT-1b cDNA, were plated at the density of 40,000 cells/well in complete F-12 medium, without hygromycin in 96-well culture plates. On day 2, the medium was aspirated and the cells were washed twice with uptake buffer (UB). The cells were then incubated for 20 min at 22° C. with either (i) no potential competitor, (ii) 10 mM non-radioactive glycine, (iii) a concentration of a potential inhibitor. A range of concentrations of the potential inhibitor was used to generate data for calculating the concentration of inhibitor resulting in 50% of the effect (e.g. IC50, the concentration of the competitor inhibiting glycine uptake of 50%). A solution was then immediately added containing [^3H]-glycine 60 nM (11-16 Ci/mmol) and 25 μM non-radioactive glycine. The plates were incubated with gentle shaking and the reaction was stopped by aspiration of the mixture and washing (three times) with ice-cold UB. The cells were lysed with scintillation liquid, shaken 3 hours and the radioactivity in the cells was counted using a scintillation counter.

Sequence of mGlyT-1b (P28571 other isoform, or with tags, fused parts or gaps isoform P28571-2): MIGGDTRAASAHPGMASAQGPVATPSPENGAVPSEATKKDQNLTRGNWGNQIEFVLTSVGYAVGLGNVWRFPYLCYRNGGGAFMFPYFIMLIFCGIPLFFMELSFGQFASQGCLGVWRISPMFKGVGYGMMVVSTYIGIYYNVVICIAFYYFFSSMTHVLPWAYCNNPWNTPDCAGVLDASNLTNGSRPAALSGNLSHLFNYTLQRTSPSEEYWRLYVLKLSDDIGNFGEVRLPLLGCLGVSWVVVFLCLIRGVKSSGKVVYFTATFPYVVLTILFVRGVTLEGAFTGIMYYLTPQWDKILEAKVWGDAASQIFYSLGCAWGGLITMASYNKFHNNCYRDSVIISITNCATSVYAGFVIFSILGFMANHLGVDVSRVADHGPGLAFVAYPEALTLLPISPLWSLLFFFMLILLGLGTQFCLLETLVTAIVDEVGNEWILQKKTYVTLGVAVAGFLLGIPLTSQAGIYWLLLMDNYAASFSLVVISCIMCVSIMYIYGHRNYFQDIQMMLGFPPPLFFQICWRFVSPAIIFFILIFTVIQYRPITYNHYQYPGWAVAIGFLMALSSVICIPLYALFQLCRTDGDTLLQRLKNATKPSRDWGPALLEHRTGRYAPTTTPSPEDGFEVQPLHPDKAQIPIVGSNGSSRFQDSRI

Row | SMILES | IC50 [nM]
1 | COc1cc(C(F)(F)F)cc(SC)c1C(=O)N[C@H]1COCC[C@H]1NC1CCC1 (racemic) [Example 3, N-((3RS,4RS)-4-Cyclobutylamino-tetrahydro-pyran-3-yl)-2-methoxy-6-methylsulfanyl-4-trifluoromethyl-benzamide] | 506
2 | O=C(N[C@@H]1COCC[C@H]1NC1CCCCC1)c1ccc(C(F)(F)F)cc1C1CC1 [Example 49] | 340
3 | CCc1cc(C(F)(F)F)cc(C)c1C(=O)N[C@@H]1COCC[C@H]1N1CCCC1 (racemic) [Example 26, 2-Ethyl-6-methyl-N-((3SR,4RS)-4-pyrrolidin-1-yl-tetrahydro-pyran-3-yl)-4-trifluoro-methyl-benzamide] | 17.9
4 | COc1cc(C(F)(F)F)cc(SC)c1C(=O)N[C@H]1COCC[C@@H]1N1CCC(O)C1 (mixture of isomers) [Example 7, N-[(3RS,4SR)-4-(3-Hydroxy-pyrrolidin-1-yl)-tetrahydro-pyran-3-yl]-2-methoxy-6-methylsulfanyl-4-trifluoromethyl-benzamide] | 155
5 | CC(C)N[C@@H]1CCOC[C@H]1NC(=O)c1ccc(C(F)(F)F)cc1C1CC1 (racemic) [Example 16, Cyclopropyl-N-((3SR,4RS)-4-isopropylamino-tetrahydro-pyran-3-yl)-4-trifluoro-methylbenzamide] | 296
6 | Cc1cc(C(F)(F)F)cc(C(F)(F)F)c1C(=O)N[C@@H]1COCC[C@H]1N1CCCC1 (racemic) [Example 10, 2-Methyl-N-((3SR,4RS)-4-pyrrolidin-1-yl-tetrahydro-pyran-3-yl)-4,6-bis-trifluoromethyl-benzamide] | 41.2
7 | O=C(N[C@@H]1COCC[C@H]1NC1CCOCC1)c1ccc(C(F)(F)F)cc1C1CC1 (racemic) [Example 17, 2-Cyclopropyl-N-[(3SR,4RS)-4-(tetrahydro-pyran-4-ylamino)-tetrahydro-pyran-3-yl]-4-trifluoro-methylbenzamide] | 904
8 | COc1cc(C(F)(F)F)cc(SC)c1C(=O)N[C@@H]1COCC[C@H]1NC1CCCC1 [Example 46, (−)-N-(4-Cyclopentylamino-tetrahydro-pyran-3-yl)-2-methoxy-6-methylsulfanyl-4-trifluoromethyl-benzamide] | 158
9 | COc1cc(C(F)(F)F)cc(C)c1C(=O)N[C@@H]1COCC[C@H]1N1CCCC1 [Example 54] | 33.8
10 | O=C(N[C@@H]1COCC[C@H]1N1CCCCC1)c1ccc(C(F)(F)F)cc1C1CC1 (racemic) [Example 19, 2-Cyclopropyl-N-((3SR,4RS)-4-piperidin-1-yl-tetrahydro-pyran-3-yl)-4-trifluoro-methylbenzamide] | 81.5
11 | O=C(N[C@@H]1COCC[C@H]1NC1CCCC1)c1ccc(C(F)(F)F)cc1C1CC1 [Example 44, (−)-N-(trans-4-Cyclopentylamino-tetrahydro-pyran-3-yl)-2-cyclopropyl-4-trifluoromethyl-benzamide] | 299
12 | Cc1cc(C(F)(F)F)cc(C)c1C(=O)N[C@@H]1COCC[C@H]1N1CCCC1 [Example 52] | 34.1
13 | O=C(N[C@H]1COCC[C@@H]1NC1CCCCC1)c1ccc(C(F)(F)F)cc1C1CC1 [Example 50] | 57
14 | COc1cc(C(F)(F)F)cc(C2CC2)c1C(=O)N[C@@H]1COCC[C@H]1N1CCCC1 [Example 58] | 7.6
15 | O=C(N[C@@H]1COCC[C@H]1N1CCCC1)c1c(C2CC2)cc(C(F)(F)F)cc1C(F)(F)F (racemic) [Example 15, 2-Cyclopropyl-N-((3SR,4RS)-4-pyrrolidin-1-yl-tetrahydro-pyran-3-yl)-4,6-bis-trifluoromethyl-benzamide] | 13.2
16 | COc1cc(C(F)(F)F)cc(SC)c1C(=O)N[C@@H]1COCC[C@H]1NC1CCCC1 (racemic) [Example 11, N-((3SR,4RS)-4-Cyclopentylamino-tetrahydro-pyran-3-yl)-2-methoxy-6-methylsulfanyl-4-trifluoromethyl-benzamide] | 127
17 | COc1cc(C(F)(F)F)cc(SC)c1C(=O)N[C@H]1COCC[C@@H]1N1CCCC1 (single isomer, unassigned) [Example 5, (+)-2-Methoxy-6-methylsulfanyl-N-(4-pyrrolidin-1-yl-tetrahydro-pyran-3-yl)-4-trifluoromethyl-benzamide] | 118
18 | COc1cc(C(F)(F)F)cc(SC)c1C(=O)N[C@@H]1CCOC[C@@H]1N1CCCC1 [Example 65, (+)-2-Methoxy-6-methylsulfanyl-N-(3-pyrrolidin-1-yl-tetrahydro-pyran-4-yl)-4-trifluoro-methyl-benzamide] | 119
19 | CSc1cc(C(F)(F)F)cc(C(F)(F)F)c1C(=O)N[C@H]1COCC[C@@H]1N1CCCC1 [Example 41, (+)-2-Methylsulfanyl-N-trans-(4-pyrrolidin-1-yl-tetrahydro-pyran-3-yl)-4,6-bis-trifluoromethyl-benzamide] | 44.7
20 | O=C(N[C@H]1COCC[C@@H]1NC1CCCC1)c1ccc(C(F)(F)F)cc1C1CC1 (stereo in doubt) [Example 43, (+)-N-(trans-4-Cyclopentylamino-tetrahydro-pyran-3-yl)-2-cyclopropyl-4-trifluoromethyl-benzamide] | 78.8
21 | CCc1cc(C(F)(F)F)cc(OC)c1C(=O)N[C@@H]1COCC[C@H]1N1CCCC1 [Example 56, (−)-2-Ethyl-6-methoxy-N-(4-pyrrolidin-1-yl-tetrahydro-pyran-3-yl)-4-trifluoro-methyl-benzamide] | 15.5
22 | O=C(N[C@@H]1COCC[C@H]1N1C[C@H]2C[C@H]2C1)c1ccc(C(F)(F)F)cc1C1CC1 [Example 35, N-[(3S,4R)-4-(3-Aza-bicyclo[3.1.0]hex-3-yl)-tetra-hydro-pyran-3-yl]-2-cyclopropyl-4-trifluoromethyl-benzamide] | 26.5
23 | COc1cc(C(F)(F)F)cc(SC)c1C(=O)N[C@H]1COCC[C@@H]1N1CCCC1 (single isomer, unassigned) [Example 6, (−)-2-Methoxy-6-methylsulfanyl-N-(4-pyrrolidin-1-yl-tetrahydro-pyran-3-yl)-4-trifluoromethyl-benzamide] | 28.4
24 | Cc1cc(C(F)(F)F)cc(C)c1C(=O)N[C@@H]1COCC[C@H]1N1CCCC1 (racemic) [Example 21, 2,6-Dimethyl-N-((3SR,4RS)-4-pyrrolidin-1-yl-tetrahydro-pyran-3-yl)-4-trifluoro-methylbenzamide] | 45.2
25 | COc1cc(C(F)(F)F)cc(SC)c1C(=O)N[C@@H]1COCC[C@H]1NC1CCC(O)CC1 (mixture of isomers) [Example 33, N-[(3SR,4RS)-4-(4-Hydroxy-cyclohexylamino)-tetrahydro-pyran-3-yl]-2-methoxy-6-methylsulfanyl-4-trifluoromethyl-benzamide] | 751
26 | O=C(N[C@@H]1COCC[C@H]1NCC1CC1)c1ccc(C(F)(F)F)cc1C1CC1 (racemic) [Example 18, Cyclopropyl-N-[(3SR,4RS)-4-(cyclopropyl-methyl-amino)-tetrahydro-pyran-3-yl]-4-trifluoro-methylbenzamide] | 126
27 | O=C(N[C@@H]1COCC[C@H]1N1CCC(O)CC1)c1ccc(C(F)(F)F)cc1C1CC1 (racemic) [Example 36] | 274
28 | O=C(N[C@@H]1COCC[C@H]1N1CCCC1)c1c(C2CC2)cc(C(F)(F)F)cc1C(F)(F)F [Example 48, (−)-2-Cyclopropyl-N-(4-pyrrolidin-1-yl-tetrahydro-pyran-3-yl)-4,6-bis-trifluoromethyl-benzamide] | 20
29 | CSc1cc(C(F)(F)F)cc(C(F)(F)F)c1C(=O)N[C@@H]1COCC[C@H]1NC1CCCC1 (racemic) [Example 13, N-((3SR,4RS)-4-Cyclopentylamino-tetrahydro-pyran-3-yl)-2-methylsulfanyl-4,6-bis-trifluoromethyl-benzamide] | 250
